# Measured values published in patent publication US7888338B2, “7-(2-cyclohexylidene-ethylidene)-spiro[4.5]decanes” (K.U. Leuven Research & Development, priority 2004, dated 2011).
# Key:
# [1] = target: T1, Human Vitamin D Binding Protein (hDBP) (Homo sapiens, UniProt P02774); assay: Affinity for Human Vitamin D Binding Protein (hDBP), displacement of [3H]1α,25(OH)2D3; conditions: relative affinity from concentration displacing 50% of [3H]1α,25(OH)2D3, 1α,25(OH)2D3 assigned 100%, 4° C.
# T1 sequence (P02774 17-474): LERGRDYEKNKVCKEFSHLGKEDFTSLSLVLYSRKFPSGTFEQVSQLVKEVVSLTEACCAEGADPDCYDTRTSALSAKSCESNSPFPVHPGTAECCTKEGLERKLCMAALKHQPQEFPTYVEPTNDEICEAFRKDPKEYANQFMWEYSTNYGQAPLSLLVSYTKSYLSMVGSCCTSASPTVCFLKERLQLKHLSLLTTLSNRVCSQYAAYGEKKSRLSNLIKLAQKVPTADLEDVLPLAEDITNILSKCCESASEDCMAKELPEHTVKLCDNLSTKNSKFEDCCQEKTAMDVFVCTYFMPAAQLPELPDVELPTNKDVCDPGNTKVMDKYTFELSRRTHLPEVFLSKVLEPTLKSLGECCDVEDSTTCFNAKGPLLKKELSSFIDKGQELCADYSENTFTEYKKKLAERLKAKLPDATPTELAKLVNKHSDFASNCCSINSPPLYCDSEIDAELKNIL
# Procedure: The solution is incubated for 3 hours at 4° C. Final phase separation is obtained by adding 0.5 mL of cold destran-coated charcoal.
# [2] = test system: MCF-7 cells; assay: Measurement of cell proliferation, breast carcinoma cells MCF-7, [3H]thymidine incorporation; type: cell-based; conditions: cell proliferation ([3H]thymidine incorporation), relative to control 1α,25(OH)2D3 = 100
# Procedure: Selected compounds of the present invention are evaluated for their effect on cell proliferation. Malignant MCF-7 cells are cultured in DMEM nutrient mix F12 (HAM) medium which is supplemented with 10% heat inactivated FCS, glutamine (2 mM), penicillin (100 units/mL) and streptomycin (0.1 mg/mL). The cultures are maintained at 37° C. in an atmosphere of humidified air containing 5% CO2. The MCF-7 cells are seeded at approximately 5×10^3 cells/well in the DMEM modified medium in a 96-well microtiter plate. […] Finally, 1 μCi of [^3H]thymidine is added to each well and the cells are harvested after a further 4 hour incubation period. The cells are harvested with a Parckard Harvester and the cell count measured by a Packard Topcount System.
# [3] = test system: HL-60 cells; assay: Promyelocytic leukemia cells (HL-60), differentiation markers (NBT reduction assay); type: cell-based; conditions: relative to control 1α,25(OH)2D3 = 100
# Procedure: Selected compounds of the present invention are evaluated for their effect on cell proliferation. Falcon tissue chambers are seeded with 4×10^4 cells/cm^2 of HL-60 cells using RPMI 1640 medium supplemented with 20% FCS and gentamycin (50 μg/mL) in a final cell volume of 5 mL. The cultures are maintained at 37° C. in an atmosphere of humidified air containing 5% CO2. […] After 4 days, the dishes are shaken to lose adherent cells. The cells are then washed twice in RPMI medium, counted, and then assayed for differentiation markers (NBT reduction assay). Superoxide production is measured as NBT reducing activity as described by Ostrem. V. K et al. Proc Natl Acad Sci USA,. 1987 84: 2610-2614. HL-60 cells at 1×10^6/mL are mixed with an equal volume of freshly prepared solution of phorbol 12-myristate 13-acetate (200 ng/mL) and NBT ([…]) and incubated for 30 minutes at 37° C. The percentage of cells containing black formazan deposits is determined using a hemacytometer.
# [4] = target: T2, Vitamin D Receptor (VDR) (Sus scrofa, UniProt A3RGC1); conditions: relative affinity from concentration displacing 50% of [3H]1α,25(OH)2D3; 1α,25(OH)2D3 assigned 100%; 4° C., 20 hours
# T2 sequence (A3RGC1 1-427): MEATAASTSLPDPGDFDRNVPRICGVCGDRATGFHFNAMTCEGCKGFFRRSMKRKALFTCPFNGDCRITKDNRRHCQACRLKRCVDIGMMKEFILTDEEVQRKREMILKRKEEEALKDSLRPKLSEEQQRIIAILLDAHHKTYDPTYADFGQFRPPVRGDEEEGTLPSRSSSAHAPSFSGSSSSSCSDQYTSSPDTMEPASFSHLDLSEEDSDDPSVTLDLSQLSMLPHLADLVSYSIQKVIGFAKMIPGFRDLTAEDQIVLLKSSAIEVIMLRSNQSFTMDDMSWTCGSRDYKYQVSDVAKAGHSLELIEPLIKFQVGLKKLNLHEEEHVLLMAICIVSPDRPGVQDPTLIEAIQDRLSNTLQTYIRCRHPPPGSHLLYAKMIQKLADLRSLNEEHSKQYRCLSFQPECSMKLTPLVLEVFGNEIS
# [5] = In vivo determination of calcium levels (serum calcium, femur calcium); set-up: species or system NMRI mice; conditions: for Femur Ca: NMRI mice, IP daily for 7 consecutive days
# Description: . Table VII presents the serum and femur calcium levels in mice after intraperitoneal injections after 7 consecutive days.
hDBP binding % [1] [%],VDR binding % [4] [%],"less calcemic than the control ([5]; mouse, in vivo)","estimated serum calcium ([5]; mouse, in vivo, ip) [%]",Structure (SMILES),MCF-7 [2],HL-60 [3],Femur Ca ([5]; 0.1 μg/kg/d) [mg],Femur Ca ([5]; 0.2 μg/kg/d) [mg],Femur Ca ([5]; 0.4 μg/kg/d) [mg],"estimated serum calcium ([5]; as compared with 1α,25(OH)2D3 (control assigned 100%), mice, IP daily, 7 consecutive days) [%]"
3,0.4,–,–,"CC(C)(O)CCCC1CCC2(CCC/C(=C/C=C3C[C@@H](O)C[C@H](O)C3)C2)C1 (stereo in doubt) [(1R,3R)-5-{2-[(2S, 5R)-2-(4-hydroxy-4-methylpentyl)-spiro[4.5]dec-(7Z)-ylidene]-ethylidene}-cyclo-hexane-1,3-diol]",8,0.9,–,–,–,–
–,–,–,–,"C=C1/C(=C\C=C2/CCC[C@]3(C)[C@@H]([C@H](C)CCCC(C)(C)O)CC[C@@H]23)C[C@@H](O)C[C@@H]1O [1α,25(OH)2D3, 1α,25-dihydroxyvitamin D3]",–,100,10.9,10.3,8.9,100
0,0.4,–,–,"CC(C)(O)CCC[C@H]1CC[C@]2(CCC/C(=C\C=C3C[C@@H](O)C[C@H](O)C3)C2)C1 [(1R,3R)-5-{2-[(2R,5S)-2-(4-Hydroxy-4-methyl-pentyl)-spiro[4.] [(1R,3R)-5-{(E)-(2R,5S))-2-[2-(4-hydroxy-4-methylpentyl)-spiro[4.5]dec-7-ylidene]-ethylidene}-cyclohexane-1,3-diol]",9,4,–,–,–,–
3,0.8,–,–,"CC(C)(O)CCC[C@H]1CC[C@]2(CCC/C(=C\C=C3C[C@@H](O)C[C@H](O)C3)C2)C1 [(1R,3R)-5-{2-[(2S,5R)-2-(4-Hydroxy-4-methyl-pentyl)-spiro[4.] [(1R,3R)-5-{2-[(2S,5R)-2-(4-hydroxy-4-methyl-pentyl)-spiro[4.5]dec-(7E)-ylidene]-ethylidene}-cyclohexane-1,3-diol]",50,10,–,–,–,–
0,0.7,–,–,"CC(C)(O)CCC[C@H]1CC[C@@]2(CCC/C(=C\C=C3C[C@@H](O)C[C@H](O)C3)C2)C1 [(1R,3R)-5-{2-[(2S,5S)-2-(4-Hydroxy-4-methyl-pentyl)-spiro[4.5]dec-(7E)-ylidene]-ethylidene}-cyclo-hexane-1,3-diol]",20,8,–,–,–,–
0,0,–,–,"CC(C)(O)CCC[C@H]1CC[C@@]2(CCC/C(=C/C=C3C[C@@H](O)C[C@H](O)C3)C2)C1 [(1R,3R)-5-{2-[(2S,5S)-2-(4-Hydroxy-4-methyl-pentyl)-spiro[4.5]dec-(7Z)-ylidene]-ethylidene}-cyclo-hexane-1,3-diol]",3,0.5,–,–,–,–
3,10,approximately 200 times,0.5,"CC(C)(O)CCC[C@@H]1CC[C@]2(CCC/C(=C\C=C3C[C@@H](O)C[C@H](O)C3)C2)C1 [(1R,3R)-5-{(E)-(2R,5R))-2-[2-(4-hydroxy-4-methylpentyl)-spiro[4.5]dec-7-ylidene]-ethylidene}-cyclohexane-1,3-diol]",450,200,–,–,–,–
3,0.8,–,–,"CC(C)(O)CCC[C@@H]1CC[C@]2(CCC/C(=C/C=C3C[C@@H](O)C[C@H](O)C3)C2)C1 [(1R,3R)-5-{(Z)-(2R,5R))-2-[2-(4-hydroxy-4-methylpentyl)-spiro[4.5]dec-7-ylidene]-ethylidene}-cyclohexane-1,3-diol]",75,8,–,–,–,–
0,0,–,–,"CC(C)(O)CCC[C@H]1CC[C@]2(CCC/C(=C/C=C3C[C@@H](O)C[C@H](O)C3)C2)C1 [(1R,3R)-5-{(Z)-(2R,5S))-2-[2-(4-hydroxy-4-methylpentyl)-spiro[4.5]dec-7-ylidene]-ethylidene}-cyclohexane-1,3-diol]",4,<1,–,–,–,–
